# Tests used:
# Format in all cases: functional
# [1] = system: K562; test: Cytotoxicity against Homo sapiens (human) K562 cells after 48 hr by sulforhodamine B assay; settings: K562, 48 h
# [2] = system: OVCAR-8; test: Cytotoxicity against Homo sapiens (human) OVCAR8 cells after 48 hr by sulforhodamine B assay; settings: OVCAR-8, 48 h
# [3] = system: M14; test: Cytotoxicity against Homo sapiens (human) M14 cells after 48 hr by sulforhodamine B assay; settings: M14, 48 h
# [4] = system: NCI-H522; test: Cytotoxicity against Homo sapiens (human) NCI-H522 cells after 48 hr by sulforhodamine B assay; settings: NCI-H522, 48 h
# [5] = system: SNB-19; test: Cytotoxicity against Homo sapiens (human) SNB19 cells after 48 hr by sulforhodamine B assay; settings: SNB-19, 48 h
# [6] = system: A498; test: Cytotoxicity against Homo sapiens (human) A498 cells after 48 hr by sulforhodamine B assay; settings: A498, 48 h
# [7] = system: SF-539; test: Cytotoxicity against Homo sapiens (human) SF539 cells after 48 hr by sulforhodamine B assay; settings: SF-539, 48 h
# [8] = system: SN12C; test: Cytotoxicity against Homo sapiens (human) SN12C cells after 48 hr by sulforhodamine B assay
# [9] = system: SF-268; test: Cytotoxicity against Homo sapiens (human) SF268 cells after 48 hr by sulforhodamine B assay; settings: SF-268, 48 h
# [10] = system: CAKI-1; test: Cytotoxicity against Homo sapiens (human) Caki1 cells after 48 hr by sulforhodamine B assay; settings: CAKI-1, 48 h
# [11] = system: NCI-H23; test: Cytotoxicity against Homo sapiens (human) NCI-H23 cells after 48 hr by sulforhodamine B assay; settings: NCI-H23, 48 h
# [12] = system: A549; test: Cytotoxicity against Homo sapiens (human) A549 cells after 48 hr by sulforhodamine B assay; settings: A549, 48 h
# [13] = system: LOX IMVI; test: Cytotoxicity against Homo sapiens (human) LOXIMVI cells after 48 hr by sulforhodamine B assay
# [14] = system: SK-MEL-28; test: Cytotoxicity against Homo sapiens (human) SK-MEL-28 cells after 48 hr by sulforhodamine B assay; settings: SK-MEL-28, 48 h
# [15] = Cytotoxicity against Homo sapiens (human) NCI-ADR-RES cells after 48 hr by sulforhodamine B assay
# [16] = system: U-251; test: Cytotoxicity against Homo sapiens (human) U251 cells after 48 hr by sulforhodamine B assay; settings: U-251, 48 h
# [17] = system: HCT-15; test: Cytotoxicity against Homo sapiens (human) HCT15 cells after 48 hr by sulforhodamine B assay; settings: HCT-15, 48 h
# [18] = system: CCRF-CEM; test: Cytotoxicity against Homo sapiens (human) CCRF-CEM cells after 48 hr by sulforhodamine B assay
# [19] = system: UACC-62; test: Cytotoxicity against Homo sapiens (human) UACC62 cells after 48 hr by sulforhodamine B assay; settings: UACC-62, 48 h
# [20] = system: NCI-H226; test: Cytotoxicity against Homo sapiens (human) NCI-H226 cells after 48 hr by sulforhodamine B assay; settings: NCI-H226, 48 h
# [21] = system: 786-0; test: Cytotoxicity against Homo sapiens (human) 786-0 cells after 48 hr by sulforhodamine B assay; settings: 786-0, 48 h
# [22] = system: UACC-257; test: Cytotoxicity against Homo sapiens (human) UACC257 cells after 48 hr by sulforhodamine B assay; settings: UACC-257, 48 h
# [23] = system: HOP-92; test: Cytotoxicity against Homo sapiens (human) HOP92 cells after 48 hr by sulforhodamine B assay; settings: HOP-92, 48 h
# [24] = system: BT-549; test: Cytotoxicity against Homo sapiens (human) BT549 cells after 48 hr by sulforhodamine B assay; settings: BT-549, 48 h
# [25] = system: UO-31; test: Cytotoxicity against Homo sapiens (human) UO31 cells after 48 hr by sulforhodamine B assay; settings: UO-31, 48 h
# [26] = system: ACHN; test: Cytotoxicity against Homo sapiens (human) ACHN cells after 48 hr by sulforhodamine B assay
# [27] = read-out: LC50 (the source's name)
smiles,measurement,setting,value
ClCc1cccc(Cn2cnc3c(Cl)ncnc32)c1,GI50,[1],3.54 µM
same,TGI,[1],15.1 µM
same,CC50,[1]; [27],75.9 µM
same,GI50,[2],21.9 µM
same,LC50 (concentration killing 50% of cells),[2],79.4 µM
same,TGI,[2],41.7 µM
same,GI50,[3],1.66 µM
same,LC50,[3],6.6 µM
same,TGI,[3],3.31 µM
same,GI50,[4],18.6 µM
same,TGI,[4],66.1 µM
same,CC50,[4]; [27],> 100 µM
same,GI50,[5],2.63 µM
same,LC50,[5],> 100 µM
same,TGI,[5],12.6 µM
same,GI50,[6],17.4 µM
same,"LC50 (lethal concentration, 50% cell kill)",[6],58.9 µM
same,TGI,[6],31.6 µM
same,GI50,[7],19.9 µM
same,LC50 (concentration killing 50% of cells),[7],61.7 µM
same,TGI,[7],35.5 µM
same,GI50,[8],2.34 µM
same,LC50 (50% lethal concentration),[8],14.5 µM
same,TGI,[8],5.12 µM
same,GI50,[9],3.54 µM
same,TGI,[9],15.5 µM
same,CC50,[9]; [27],> 100 µM
same,GI50,[10],1.54 µM
same,TGI,[10],2.95 µM
same,CC50,[10]; [27],5.62 µM
same,GI50,[11],1.9 µM
same,TGI,[11],4.07 µM
same,CC50,[11]; [27],8.71 µM
same,GI50,[12],19.5 µM
same,TGI,[12],39.8 µM
same,CC50,[12]; [27],79.4 µM
same,GI50,[13],1.95 µM
same,LC50,[13],27.5 µM
same,TGI,[13],5.01 µM
same,GI50,[14],2.23 µM
same,LC50 (concentration killing 50% of cells),[14],28.8 µM
same,TGI,[14],5.75 µM
same,GI50,[15],2.45 µM
same,LC50 (concentration killing 50% of cells),[15],37.1 µM
same,TGI,[15],7.58 µM
same,GI50,[16],1.82 µM
same,LC50 (concentration killing 50% of cells),[16],6.76 µM
same,TGI,[16],3.46 µM
same,GI50,[17],2.18 µM
same,TGI,[17],4.67 µM
same,CC50,[17]; [27],10 µM
same,GI50,[18],1.9 µM
same,TGI,[18],3.89 µM
same,CC50,[18]; [27],7.62 µM
same,GI50,[19],1.82 µM
same,LC50 (concentration causing 50% net cell kill),[19],6.31 µM
same,TGI,[19],3.38 µM
same,GI50,[20],2.13 µM
same,TGI,[20],14.4 µM
same,CC50,[20]; [27],8.91 µM
same,GI50,[21],6.16 µM
same,LC50,[21],50.1 µM
same,TGI,[21],19.9 µM
same,GI50,[22],20.4 µM
same,LC50 (concentration killing 50% of cells),[22],67.6 µM
same,TGI,[22],37.1 µM
same,GI50,[23],2.45 µM
same,TGI,[23],6.16 µM
same,CC50,[23]; [27],31.6 µM
same,GI50,[24],15.1 µM
same,LC50 (50% lethal concentration),[24],60.3 µM
same,TGI,[24],30.2 µM
same,GI50,[25],1.44 µM
same,LC50 (concentration causing 50% net cell kill),[25],89.1 µM
same,TGI,[25],36.3 µM
same,GI50,[26],2.08 µM
same,TGI,[26],4.07 µM
same,CC50,[26]; [27],8.12 µM

# Source: ChEMBL document CHEMBL3044672, “N9- and N7-(Chloromethyl Phenymethyl)Chloropurine Derivatives from , '-Dichloroxylenes: Synthesis and Anticancer Activity” (2005)
